From ChEMBL document CHEMBL1122174, “Behavioral and serotonin receptor properties of 4-substituted derivatives of the hallucinogen 1-(2,5-dimethoxyphenyl)-2-aminopropane” (J Med Chem, 1982)
Activity calls are given as the source filed them. No cut-off for these calls is given here.

Assays:
Homo sapiens = species: Homo sapiens; experiment: Hallucinogenic potency was determined in humans; format: functional
Rattus norvegicus [1] = experiment: Dose required to produce 50% hallucinogenic potency in rat was determined at a dose of 0.125 mg/kg; format: functional
Rattus norvegicus [2] = experiment: Dose required to produce 50% hallucinogenic potency in rat was determined at a dose of 0.25 mg/kg; format: functional
Rattus norvegicus [3] = experiment: Dose required to produce 50% hallucinogenic potency in rat was determined at a dose of 0.5 mg/kg; format: functional
Rattus norvegicus [4] = species: Rattus norvegicus; experiment: Dose at which the rats perform 50% appropriate drug -lever responding was determined; format: functional
Rattus norvegicus [5] = experiment: Number of rats responding out of 5 treated rats at a dose of 0.125 mg/Kg; format: functional
Rattus norvegicus [6] = experiment: Number of rats responding out of 5 treated rats at a dose of 0.25 mg/Kg; format: functional
Rattus norvegicus [7] = experiment: Number of rats responding out of 5 treated rats at a dose of 0.5 mg/Kg; format: functional
[8] = biological target: Serotonin (5-HT) receptor; experiment: Binding affinity at rat 5-hydroxytryptamine receptor.; format: protein assay
Rattus norvegicus [9] = experiment: Dose required to produce 50% hallucinogenic potency in rat was determined at a dose of 3 mg/kg; format: functional
Rattus norvegicus [10] = experiment: Dose required to produce 50% hallucinogenic potency in rat was determined at a dose of 0.75 mg/kg; format: functional
Rattus norvegicus [11] = experiment: Dose required to produce 50% hallucinogenic potency in rat was determined at a dose of 1 mg/kg; format: functional
Rattus norvegicus [12] = experiment: Dose required to produce 50% hallucinogenic potency in rat was determined at a dose of 1.5 mg/kg; format: functional
Rattus norvegicus [13] = experiment: Dose required to produce 50% hallucinogenic potency in rat was determined at a dose of 2.5 mg/kg; format: functional
Rattus norvegicus [14] = experiment: Number of rats responding out of 5 treated rats at a dose of 0.75 mg/Kg; format: functional
Rattus norvegicus [15] = experiment: Number of rats responding out of 5 treated rats at a dose of 1 mg/Kg; format: functional
Rattus norvegicus [16] = experiment: Number of rats responding out of 5 treated rats at a dose of 2.5 mg/Kg; format: functional
Rattus norvegicus [17] = experiment: Dose required to produce 50% hallucinogenic potency in rat was determined at a dose of 3.0 mg/kg; format: functional
Rattus norvegicus [18] = experiment: Dose required to produce 50% hallucinogenic potency in rat was determined at a dose of 3.5 mg/kg; format: functional
Rattus norvegicus [19] = experiment: Dose required to produce 50% hallucinogenic potency in rat was determined at a dose of 4 mg/kg; format: functional
Rattus norvegicus [20] = experiment: Dose required to produce 50% hallucinogenic potency in rat was determined at a dose of 5.0 mg/kg; format: functional
Rattus norvegicus [21] = experiment: Dose required to produce 50% hallucinogenic potency in rat was determined at a dose of 5.5 mg/kg; format: functional
Rattus norvegicus [22] = experiment: Number of rats responding out of 5 treated rats at a dose of 3.5 mg/Kg; format: functional
Rattus norvegicus [23] = experiment: Number of rats responding out of 5 treated rats at a dose of 4 mg/Kg; format: functional
Rattus norvegicus [24] = experiment: Number of rats responding out of 5 treated rats at a dose of 5 mg/Kg; format: functional
Rattus norvegicus [25] = experiment: Number of rats responding out of 5 treated rats at a dose of 5.5 mg/Kg; format: functional
Rattus norvegicus [26] = experiment: Dose required to produce 50% hallucinogenic potency in rat was determined at a dose of 0.1 mg/kg; format: functional
Rattus norvegicus [27] = experiment: Dose required to produce 50% hallucinogenic potency in rat was determined at a dose of 0.15 mg/kg; format: functional
Rattus norvegicus [28] = experiment: Dose required to produce 50% hallucinogenic potency in rat was determined at a dose of 0.2 mg/kg; format: functional
Rattus norvegicus [29] = experiment: Number of rats responding out of 5 treated rats at a dose of 0.10 mg/Kg; format: functional
Rattus norvegicus [30] = experiment: Number of rats responding out of 5 treated rats at a dose of 0.15 mg/Kg; format: functional
Rattus norvegicus [31] = experiment: Number of rats responding out of 5 treated rats at a dose of 0.20 mg/Kg; format: functional
Rattus norvegicus [32] = experiment: Dose required to produce 50% hallucinogenic potency in rat was determined at a dose of 4 mg/kg; Disruption behavior; format: functional, organism-based; set-up: dose 4 mg/kg
Rattus norvegicus [33] = experiment: Dose required to produce 50% hallucinogenic potency in rat was determined at a dose of 2 mg/kg; format: functional
Rattus norvegicus [34] = experiment: Number of rats responding out of 5 treated rats at a dose of 2 mg/Kg; format: functional
Rattus norvegicus [35] = experiment: Number of rats responding out of 5 treated rats at a dose of 1.5 mg/Kg; format: functional
Rattus norvegicus [36] = experiment: Dose required to produce 50% hallucinogenic potency in rat was determined at a dose of 2 mg/kg; Disruption behavior; format: functional, organism-based; set-up: dose 2 mg/kg
Rattus norvegicus [37] = experiment: Dose required to produce 50% hallucinogenic potency in rat was determined at a dose of 3 mg/kg; Disruption behavior; format: functional, organism-based; set-up: dose 3 mg/kg
Rattus norvegicus [38] = experiment: Number of rats responding out of 5 treated rats at a dose of 3 mg/Kg; format: functional
Rattus norvegicus [39] = experiment: Dose required to produce 50% hallucinogenic potency in rat was determined at a dose of 5 mg/kg; format: functional
Rattus norvegicus [40] = experiment: Dose required to produce 50% hallucinogenic potency in rat was determined at a dose of 8 mg/kg; format: functional
Rattus norvegicus [41] = experiment: Dose required to produce 50% hallucinogenic potency in rat was determined at a dose of 2.0 mg/kg; format: functional
Rattus norvegicus [42] = experiment: Number of rats responding out of 5 treated rats at a dose of 10 mg/Kg; format: functional
Rattus norvegicus [43] = experiment: Number of rats responding out of 5 treated rats at a dose of 8 mg/Kg; format: functional
Rattus norvegicus [44] = experiment: Number of rats responding out of 5 treated rats at a dose of 9 mg/Kg; format: functional
Rattus norvegicus [45] = experiment: Dose required to produce 50% hallucinogenic potency in rat was determined at a dose of 9 mg/kg; format: functional

CCc1cc(OC)c(CC(C)N)cc1OC (racemic)
HHP (Homo sapiens): 1.5 mg
DOM (Rattus norvegicus [1]): 10%
DOM (Rattus norvegicus [2]): 44%
DOM (Rattus norvegicus [3]): 99%
ED50 (Rattus norvegicus [4]): 0.23 mg/kg
No. of animals (Rattus norvegicus [5]): 5
No. of animals (Rattus norvegicus [6]): 5
No. of animals (Rattus norvegicus [7]): 5

COc1cc(CC(C)N)c(OC)cc1F (racemic)
pA2 [8]: 7.2
DOM (Rattus norvegicus [9]): 88%
DOM (Rattus norvegicus [3]): 6%
DOM (Rattus norvegicus [10]): 25%
DOM (Rattus norvegicus [11]): 43%
DOM (Rattus norvegicus [12]): 45%
DOM (Rattus norvegicus [13]): 66%
ED50 (Rattus norvegicus [4]): 1.45 mg/kg
No. of animals (Rattus norvegicus [7]): 5
No. of animals (Rattus norvegicus [14]): 5
No. of animals (Rattus norvegicus [15]): 5
No. of animals (Rattus norvegicus [16]): 5

COc1cc(OC)c(OC)cc1CC(C)N (racemic)
HHP (Homo sapiens): 20 mg
DOM (Rattus norvegicus [17]): 20%
DOM (Rattus norvegicus [18]): 59%
DOM (Rattus norvegicus [19]): 70%
DOM (Rattus norvegicus [20]): 81%
DOM (Rattus norvegicus [21]): 90%
ED50 (Rattus norvegicus [4]): 3.59 mg/kg
No. of animals (Rattus norvegicus [22]): 5
No. of animals (Rattus norvegicus [23]): 5
No. of animals (Rattus norvegicus [24]): 5
No. of animals (Rattus norvegicus [25]): 6

COc1cc(C[C@@H](C)N)c(OC)cc1Br
HHP (Homo sapiens): 0.4 mg
DOM (Rattus norvegicus [26]): 47%
DOM (Rattus norvegicus [27]): 79%
DOM (Rattus norvegicus [28]): 91%
ED50 (Rattus norvegicus [4]): 0.1 mg/kg
No. of animals (Rattus norvegicus [29]): 5
No. of animals (Rattus norvegicus [30]): 5
No. of animals (Rattus norvegicus [31]): 5

COc1cccc(CC(C)N)c1 (racemic)
DOM (Rattus norvegicus [19]): 10%
DOM (Rattus norvegicus [32]): inactive
DOM (Rattus norvegicus [33]): 8%
No. of animals (Rattus norvegicus [34]): 5
No. of animals (Rattus norvegicus [23]): 3
No. of animals (Rattus norvegicus [24]): 1

COc1ccc(OC)c(CC(C)N)c1 (racemic)
HHP (Homo sapiens): 50 mg
ED50 (Rattus norvegicus [17]): 5.51 mg/kg

COc1ccc(CC(C)N)cc1 (racemic) [PARA-METHOXYAMPHETAMINE]
DOM (Rattus norvegicus [32]): inactive
DOM (Rattus norvegicus [3]): 13%
DOM (Rattus norvegicus [11]): 15%
No. of animals (Rattus norvegicus [7]): 5
No. of animals (Rattus norvegicus [15]): 4
No. of animals (Rattus norvegicus [35]): 2

CC(N)Cc1ccccc1 (racemic) [AMPHETAMINE]
DOM (Rattus norvegicus [36]): inactive
DOM (Rattus norvegicus [37]): inactive
DOM (Rattus norvegicus [11]): 2%
DOM (Rattus norvegicus [12]): 26%
No. of animals (Rattus norvegicus [15]): 5
No. of animals (Rattus norvegicus [35]): 3
No. of animals (Rattus norvegicus [34]): 1
No. of animals (Rattus norvegicus [38]): 0

COc1cc([N+](=O)[O-])c(OC)cc1CC(C)N (racemic)
pA2 [8]: 7.07
DOM (Rattus norvegicus [3]): 32%
DOM (Rattus norvegicus [11]): 55%
DOM (Rattus norvegicus [12]): 87%
ED50 (Rattus norvegicus [4]): 0.76 mg/kg
No. of animals (Rattus norvegicus [7]): 5
No. of animals (Rattus norvegicus [15]): 4
No. of animals (Rattus norvegicus [35]): 5

COc1cc(C[C@H](C)N)c(OC)cc1Br
HHP (Homo sapiens): 4 mg
DOM (Rattus norvegicus [3]): 20%
DOM (Rattus norvegicus [10]): 35%
DOM (Rattus norvegicus [12]): 96%
ED50 (Rattus norvegicus [4]): 0.81 mg/kg
No. of animals (Rattus norvegicus [7]): 5
No. of animals (Rattus norvegicus [14]): 5
No. of animals (Rattus norvegicus [35]): 5

COc1cc(Br)c(OC)c(CC(C)N)c1 (racemic)
DOM (Rattus norvegicus [9]): 0%
DOM (Rattus norvegicus [11]): 2%
DOM (Rattus norvegicus [33]): 3%
No. of animals (Rattus norvegicus [15]): 5
No. of animals (Rattus norvegicus [34]): 5
No. of animals (Rattus norvegicus [38]): 4

CCOc1cc(OC)c(CC(C)N)cc1OC (racemic)
pA2 [8]: 6.78
HHP (Homo sapiens): 30 mg
DOM (Rattus norvegicus [39]): 16%
DOM (Rattus norvegicus [40]): 68%
DOM (Rattus norvegicus [41]): 2%
ED50 (Rattus norvegicus [4]): 6.33 mg/kg
No. of animals (Rattus norvegicus [42]): 1
No. of animals (Rattus norvegicus [34]): 5
No. of animals (Rattus norvegicus [24]): 5
No. of animals (Rattus norvegicus [43]): 5
No. of animals (Rattus norvegicus [44]): 4
DOM (Rattus norvegicus [45]): 85%

COc1ccc(C[C@@H](C)N)cc1
DOM (Rattus norvegicus [32]): inactive
DOM (Rattus norvegicus [3]): 18%
DOM (Rattus norvegicus [11]): 20%
No. of animals (Rattus norvegicus [7]): 5
No. of animals (Rattus norvegicus [15]): 3
No. of animals (Rattus norvegicus [35]): 1

COc1cc(CC(C)N)c(OC)cc1C (racemic) [DOM]
HHP (Homo sapiens): 2 mg
ED50 (Rattus norvegicus [17]): 0.44 mg/kg

COc1cc(CC(C)N)c(OC)cc1I (racemic)
pA2 [8]: 7.49
HHP (Homo sapiens): 0.8 mg
DOM (Rattus norvegicus [2]): 31%
DOM (Rattus norvegicus [3]): 41%
DOM (Rattus norvegicus [10]): 80%
DOM (Rattus norvegicus [11]): 93%
ED50 (Rattus norvegicus [4]): 0.42 mg/kg
No. of animals (Rattus norvegicus [6]): 5
No. of animals (Rattus norvegicus [7]): 5
No. of animals (Rattus norvegicus [14]): 5
No. of animals (Rattus norvegicus [15]): 5

COc1cc([N+](=O)[O-])c(OC)cc1C[C@@H](C)N
pA2 [8]: 7.49
DOM (Rattus norvegicus [3]): 44%
DOM (Rattus norvegicus [10]): 61%
DOM (Rattus norvegicus [11]): 93%
ED50 (Rattus norvegicus [4]): 0.57 mg/kg
No. of animals (Rattus norvegicus [7]): 5
No. of animals (Rattus norvegicus [14]): 5
No. of animals (Rattus norvegicus [15]): 5

COc1cc(CC(C)N)c(OC)cc1Br (racemic) [BROLAMFETAMINE]
HHP (Homo sapiens): 0.8 mg
DOM (Rattus norvegicus [1]): 18%
DOM (Rattus norvegicus [28]): 51%
DOM (Rattus norvegicus [2]): 70%
DOM (Rattus norvegicus [3]): 91%
ED50 (Rattus norvegicus [4]): 0.2 mg/kg
No. of animals (Rattus norvegicus [5]): 5
No. of animals (Rattus norvegicus [6]): 5
No. of animals (Rattus norvegicus [7]): 5
No. of animals (Rattus norvegicus [31]): 5

COc1ccccc1CC(C)N (racemic)
DOM (Rattus norvegicus [9]): 7%
DOM (Rattus norvegicus [32]): inactive
DOM (Rattus norvegicus [33]): 2%
No. of animals (Rattus norvegicus [34]): 5
No. of animals (Rattus norvegicus [38]): 4
No. of animals (Rattus norvegicus [23]): 2

COc1cc(C[C@@H](C)N)c(OC)cc1I
pA2 [8]: 7.63
DOM (Rattus norvegicus [1]): 18%
DOM (Rattus norvegicus [2]): 47%
DOM (Rattus norvegicus [3]): 75%
DOM (Rattus norvegicus [10]): 96%
ED50 (Rattus norvegicus [4]): 0.26 mg/kg
No. of animals (Rattus norvegicus [5]): 5
No. of animals (Rattus norvegicus [6]): 5
No. of animals (Rattus norvegicus [7]): 5
No. of animals (Rattus norvegicus [14]): 5
